We go through 14 compounds from US5703087A, “Phenyl indole compounds” (H. Lundbeck A/S, priority 1993, dated 1997).

Structures can show the parent of a compound that is named as a salt. Where two headings read alike, the source gives them in different places.

What is called ED50 is the dose at which the effect has come halfway, by size or by number of responders.

Series [1] has as its target T1, 5-HT2 receptors (Rattus norvegicus, UniProt P14842).
T1 construct: 5-HT2 receptors in membranes from rat; from tissue; host or cells: rat cortex membranes
The experiment in a line: Inhibition of 3H-Ketanserin binding to 5-HT2 receptors in membranes from rat cortex in vitro. The conditions noted are these: 0,5 nM 3H-ketanserin. On the procedure:
Inhibition of ^3 H-Ketanserin Binding To 5-HT2 Receptors in […] Cortex in vitro
By this method the inhibition by drugs of the binding of ^3 H-Ketanserin (0,5 nM) to 5-HT2 receptors in membranes from rat is determined in vitro. The method is described in Hyttel, Pharmacology & Toxicology 61, 126-129, 1987.

Series [2] deals with T2, dopamine D2 receptors (Rattus norvegicus, UniProt P61169).
T2 construct: dopamine D2 receptors in membranes from rat corpus striatum; from tissue; host or cells: rat corpus striatum membranes
T2 sequence (P61169 whole entry): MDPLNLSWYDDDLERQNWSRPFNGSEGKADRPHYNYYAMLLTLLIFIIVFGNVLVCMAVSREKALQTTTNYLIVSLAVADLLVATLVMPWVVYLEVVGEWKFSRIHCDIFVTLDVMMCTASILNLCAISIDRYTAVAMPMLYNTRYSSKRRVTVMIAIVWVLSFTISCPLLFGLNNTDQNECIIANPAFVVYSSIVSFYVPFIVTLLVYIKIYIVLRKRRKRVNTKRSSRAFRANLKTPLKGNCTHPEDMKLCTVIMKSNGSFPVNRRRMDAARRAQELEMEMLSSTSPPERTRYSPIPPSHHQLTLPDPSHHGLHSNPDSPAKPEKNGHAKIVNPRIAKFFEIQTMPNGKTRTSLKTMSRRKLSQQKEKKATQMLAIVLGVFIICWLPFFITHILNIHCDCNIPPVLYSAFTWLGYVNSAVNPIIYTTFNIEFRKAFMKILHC
The experiment in a line: Inhibition of 3H-Spiperone binding to dopamine D2 receptors in rat corpus striatum in vitro. To be noted: 0.5 nM 3H-spiperone, rat corpus striatum membranes, read-out: Dopamine D2 binding [^3 H]-spiroperidol. As for the experimental part:
Inhibition of ^3 H-Spiperone Binding to Dopamine D2 Receptors in Rat Corpus Striatum in vitro
By this method the inhibition by drugs of the binding of ^3 H-spiperone (0.5 nM) to dopamine D2 receptors in membranes from rat corpus striatum is determined in vitro.

In series [3] the test system is 5-HT2. The experiment in a line: Quipazine inhibition (quipazine induced head twitches in rats). Type of series: in vivo. To be noted: Rattus norvegicus. The source says: Quipazine is a 5-HT2 agonist, which induces head twitches in rats.
A short description of series [4]: Catalepsy in rats (vertical wire mesh). To be noted: rat, in vivo, 1-6 hours, sc. On the procedure:
Evaluation of catalepsy is made according to Arnt (Eur. J. Pharmacol. 90, 47-55 (1983)). Test compound is given s.c. in different doses. The rat (170-240 g) is placed on a vertical wire mesh (mesh diameter 12 mm). The rat is considered cataleptogenic if it remains immobile for more than 15 sec. The maximum number of rats showing catalepsy within the first 6 hours is recorded for each dose group. The results are recorded in fractions and an ED50 value is calculated by means of log-probit analysis.

The conditions of series [5]: in vivo; cited from earlier work.
Setting [6] is: po, 24 h, read-out: Quipazine inhibition 24 hours (po) ED50.
[7] abbreviates: sc, 2 h, read-out: Quipazine inhibition 2 hours (sc) ED50.
[8] abbreviates: rats, 2 hours, sc, read-out: Quipazine inhibition 2 hours (sc) ED50.
Setting [9] is: rats, 24 hours, po, read-out: Quipazine inhibition 24 hours (po) ED50.

T1 sequence (P14842 whole entry): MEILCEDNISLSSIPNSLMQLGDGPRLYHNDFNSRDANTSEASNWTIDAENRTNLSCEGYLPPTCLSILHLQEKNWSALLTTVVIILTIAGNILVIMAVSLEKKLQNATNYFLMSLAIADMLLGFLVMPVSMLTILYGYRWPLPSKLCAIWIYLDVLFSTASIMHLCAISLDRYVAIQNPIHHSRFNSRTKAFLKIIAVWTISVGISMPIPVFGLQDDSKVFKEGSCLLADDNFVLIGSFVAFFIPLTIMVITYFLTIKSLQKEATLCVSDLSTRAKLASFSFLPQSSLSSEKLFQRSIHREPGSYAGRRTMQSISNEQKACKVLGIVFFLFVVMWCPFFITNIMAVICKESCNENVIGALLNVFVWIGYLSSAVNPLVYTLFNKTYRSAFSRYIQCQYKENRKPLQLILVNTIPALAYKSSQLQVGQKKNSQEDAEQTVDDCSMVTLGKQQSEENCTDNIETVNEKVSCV

Consider `O=C1NCC2(CCCC2)N1CCN1CCC(c2cn(-c3ccc(F)cc3)c3ccc(Cl)cc23)CC1` [Compound 13, 1-[2-[4-[5-Chloro-1-(4-fluorophenyl)-1H-indol-3-yl]piperidin-1-yl]ethyl]-1,3-diazaspiro[4.4]nonan-2-one], for which the values for the IC50 in series [1] and in series [2] were 4.5 nM and 30 nM, respectively. The ED50 in series [3] (setting [6]) turned out to be 0.45 µmol/kg; in series [3] (setting [7]), 0.088 µmol/kg. The compound also showed an ED50 at 6 h in series [4] above 40 µmol/kg.

As for `CC1(C)CNC(=O)N1CCN1CCC(c2cn(-c3ccc(F)cc3)c3ccc(Cl)cc23)CC1` [Compound 9, 1-[2-[4-[5-Chloro-1-(4-fluorophenyl)-1H-indol-3-yl]piperidin-1-yl]ethyl]-5,5-dimethylimidazolidin-2-one], the IC50 in series [1] came to 1.7 nM; in series [2], 14 nM. The ED50 in series [3] (setting [6]) came out at 0.078 µmol/kg; in series [3] (setting [7]), 0.13 µmol/kg. The compound further came in with an ED50 at 6 h in series [4] above 43 µmol/kg.

Regarding `O=C1NCCN1CCN1CCC(c2cn(-c3ccc(F)cc3)c3ccc(Cl)cc23)CC1` [sertindole, 1-[2-[4-[5-chloro-1-(4-fluorophenyl)-1H-indol-3-yl]piperidin-1-yl]ethyl]-2-imidazolidinone, reference compound], the ED50 in series [3] (setting [8]) was determined as 0.035 µmol/kg; in series [3] (setting [9]), 0.039 µmol/kg. Further, the median effective dose (ED50) at 6 h in series [4] was above 91 µmol/kg. For the same compound, in series [5], the anxiolytic activity entry is on record as “found to show anxiolytic activity”.

As to `O=C1NC(O)C(O)N1CCN1CCC(c2cn(-c3ccc(F)cc3)c3ccc(Cl)cc23)CC1` (centres unmarked) [Compound 11, 1-[2-[4-[5-chloro-1-(4-fluorophenyl)-1H-indol-3-yl]piperidin-1-yl]ethyl]-4,5-dihydroxyimidazolidin-2-one], the IC50 in series [1] was determined as 2.5 nM; in series [2], 18 nM.

On to `O=C1NC(O)C(=O)N1CCN1CCC(c2cn(-c3ccc(F)cc3)c3ccc(Cl)cc23)CC1` (centres unmarked) [Compound 7a, 1-[2-[4-[5-Chloro-1-(4-fluorophenyl)-1H-indol-3-yl]piperidin-1-yl]ethyl]-4-hydroxyimidazolidin-2,5-dione], for which the IC50 came out at 6.6 nM in series [1] and 18 nM in series [2]. In series [4], the ED50 at 6 h was above 42 µmol/kg.

Regarding `CC1(C)C(=O)NC(=O)N1CCN1CCC(c2cn(-c3ccc(F)cc3)c3ccc(Cl)cc23)CC1` [Compound 10, 1-[2-[4-[5-Chloro-1-(4-fluorophenyl)-1H-indol-3-yl]piperidin-1-yl]ethyl]-5,5-dimethylimidazolidin-2,4-dione], the figures for the IC50 in series [1] and in series [2] were 12 nM and 20 nM, respectively. The ED50 in series [3] (setting [7]) amounted to 0.33 µmol/kg. The compound further gave an ED50 at 6 h in series [4] above 30 µmol/kg.

As to `[2H]C1([2H])NC(=O)N(CCN2CCC(c3cn(-c4ccc(F)cc4)c4ccc(Cl)cc34)CC2)C1([2H])[2H]` [Compound 4, 1-[2-[4-[5-Chloro-1-(4-fluorophenyl)-1H-indol-3-yl]piperidin-1-yl]ethyl]-4,4,5,5-tetradeuteroimidazolidin-2-one], the ED50 was 0.07 µmol/kg in series [3] (setting [8]) and below 0.0056 µmol/kg in series [3] (setting [9]). For the same compound, the ED50 at 6 h in series [4] is above 45 µmol/kg.

With `O=C1NCC(O)N1CCN1CCC(c2cn(-c3ccc(F)cc3)c3ccc(Cl)cc23)CC1` (centres unmarked) [Compound 1, 1-[2-[4-[5-chloro-1-(4-fluorophenyl)-1H-indol-3-yl]piperidin-1-yl]ethyl]-5-hydroxyimidazolidin-2-one], the results for the IC50 in series [1] and in series [2] were 1.4 nM and 5.5 nM, respectively. For the same compound, the ED50 in series [3] (setting [6]) was 0.085 µmol/kg; in series [3] (setting [7]) it was 0.099 µmol/kg. Besides, in series [4], it took a dose of 39 µmol/kg to reach the 50% effect level (ED50 at 6 h).

Turning to `CC1(C)CN(CCN2CCC(c3cn(-c4ccc(F)cc4)c4ccc(Cl)cc34)CC2)C(=O)N1` [Compound 8, 1-[2-[4-[5-Chloro-1-(4-fluorophenyl)-1H-indol-3-yl]piperidin-1-yl]ethyl]-4,4-dimethylimidazolidin-2-one], the figures for the IC50 in series [1] and in series [2] were 2 nM and 18 nM, respectively. Further, the ED50 was 0.013 µmol/kg in series [3] (setting [6]) and 0.035 µmol/kg in series [3] (setting [7]). In addition, in series [4], the ED50 at 6 h was above 43 µmol/kg.

Consider `COC1CNC(=O)N1CCN1CCC(c2cn(-c3ccc(F)cc3)c3ccc(Cl)cc23)CC1` (centres unmarked) [Compound 3, 1-[2-[4-[5-chloro-1-(4-fluorophenyl)-1H-indol-3-yl]piperidin-1-yl]ethyl]-5-methoxyimidazolidin-2-one, fumarate], for which the IC50 was 1.5 nM in series [1] and 13 nM in series [2]. In series [4], this compound showed a 50% effective dose (ED50) at 6 h of 17 µmol/kg.

Turning to `[2H]C1([2H])CN(CCN2CCC(c3cn(-c4ccc(F)cc4)c4ccc(Cl)cc34)CC2)C(=O)N1` [Compound 5, 1-[2-[4-[5-Chloro-1-(4-fluorophenyl)-1H-indol-3-yl]piperidin-1-yl]ethyl]-4,4-dideuteroimidazolidin-2-one], the ED50 in series [3] (setting [8]) was 0.055 µmol/kg; in series [3] (setting [9]), 0.0097 µmol/kg. The same compound displayed an ED50 at 6 h in series [4] above 45 µmol/kg.

For the compound `[2H]C1([2H])CNC(=O)N1CCN1CCC(c2cn(-c3ccc(F)cc3)c3ccc(Cl)cc23)CC1` [Compound 6, 1-[2-[4-[5-Chloro-1-(4-fluorophenyl)-1H-indol-3-yl]piperidin-1-yl]ethyl]-5,5-dideuteroimidazolidin-2-one], the ED50 turned out to be 0.02 µmol/kg in series [3] (setting [8]) and 0.012 µmol/kg in series [3] (setting [9]). The compound also showed an ED50 at 6 h in series [4] of 30 µmol/kg.

On to `O=C1NC(=O)N(CCN2CCC(c3cn(-c4ccc(F)cc4)c4ccc(Cl)cc34)CC2)C1O` (centres unmarked) [Compound 7b, 1-[2-[4-[5-chloro-1-(4-fluorophenyl)-1H-indol-3-yl]piperidin-1-yl]ethyl]-5-hydroxyimidazolidin-2,4-dione], for which the IC50 in series [1] amounted to 9.8 nM; in series [2], 23 nM. The ED50 at 6 h in series [4] is above 21 µmol/kg.

Take `O=C1NC2(CCCC2)CN1CCN1CCC(c2cn(-c3ccc(F)cc3)c3ccc(Cl)cc23)CC1` [Compound 12, 3-[2-[4-[5-Chloro-1-(4-fluorophenyl)-1H-indol-3-yl]piperidin-1-yl]ethyl]-1,3-diazaspiro[4.4]nonan-2-one]: the IC50 in series [1] was found to be 4.7 nM; in series [2] it was 19 nM. Moreover, the values for the ED50 in series [3] (setting [6]) and in series [3] (setting [7]) were 0.037 µmol/kg and 0.076 µmol/kg, respectively. In series [4], this compound displayed an ED50 at 6 h above 40 µmol/kg.
